# From US20100292231A1, “Indazole Compounds for Treating Inflammatory Disorders, Demyelinating Disorders and Cancers” (priority 2007, published 2010)
# Where two headings read alike, the source gives them in different places.
# How the values were obtained:
# Test in all cases: SelectScreen kinase specificity survey
# Type in all cases: biochemical
# [1] = target: T1, SGK2 (Homo sapiens, UniProt Q9HBY8); conditions: estimated, abridged dose response curve, read-out: Kinase inhibitory activity EC50
# T1 construct: purchased Invitrogen, Inc. (SelectScreen platform)
# In short: (§1)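 EC50 values are estimates from an abridged dose-response curve fitted to a 4-parameter Hill sigmoid. Compound was titrated in 5 increments against each kinase, which was paired with a unique substrate and optical reporter in 100 micromolar ATP.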
# [2] = target: T2, FRAP1 (mTOR) (Homo sapiens, UniProt P42345); conditions: estimated, abridged dose response curve, read-out: Kinase inhibitory activity EC50
# T2 construct: purchased Invitrogen, Inc. (SelectScreen platform)
# In short: as §1
# [3] = target: T3, PRKG2 (PKG2) (Homo sapiens, UniProt Q13237); conditions: estimated, abridged dose response curve, read-out: Kinase inhibitory activity EC50
# T3 construct: purchased Invitrogen, Inc. (SelectScreen platform)
# In short: as §1
# [4] = target: T4, CSNK2A1 (CK2 alpha 1) (Homo sapiens, UniProt P68400); conditions: estimated, abridged dose response curve, read-out: Kinase inhibitory activity EC50
# T4 construct: purchased Invitrogen, Inc. (SelectScreen service)
# In short: as §1
# [5] = target: T5, ERBB2 (HER2) (Homo sapiens, UniProt P04626); conditions: estimated, abridged dose response curve, read-out: Kinase inhibitory activity EC50
# T5 construct: purchased Invitrogen (SelectScreen service)
# In short: as §1
# [6] = target: T6, AKT2 (PKB beta) (Homo sapiens, UniProt P31751); conditions: estimated, abridged dose response curve, read-out: Kinase inhibitory activity EC50
# T6 construct: purchased Invitrogen (SelectScreen platform)
# In short: as §1
# [7] = target: T7, ROCK2 (Homo sapiens, UniProt O75116); conditions: estimated, abridged dose response curve, read-out: Kinase inhibitory activity EC50
# T7 construct: purchased Invitrogen (SelectScreen platform)
# In short: as §1
# [8] = target: T8, PDGFRA T674I (Homo sapiens, UniProt P16234, T674I); conditions: estimated, abridged dose response curve, read-out: Kinase inhibitory activity EC50
# T8 construct: purchased Invitrogen (SelectScreen platform)
# In short: as §1
# [9] = target: T9, CSNK1G1 (CK1 gamma 1) (Homo sapiens, UniProt Q9HCP0); conditions: estimated, abridged dose response curve, read-out: Kinase inhibitory activity EC50
# T9 construct: purchased Invitrogen (SelectScreen platform)
# In short: as §1
# [10] = target: T10, AMPK A2/B1/G1 (Homo sapiens, UniProt P54619+P54646+Q9Y478); conditions: estimated, abridged dose response curve, read-out: Kinase inhibitory activity EC50
# T10 construct: purchased Invitrogen, Inc. (SelectScreen platform)
# In short: as §1
# [11] = target: T11, EPHA2 (Homo sapiens, UniProt P29317); conditions: estimated, abridged dose response curve, read-out: Kinase inhibitory activity EC50
# T11 construct: purchased Invitrogen (SelectScreen service)
# In short: as §1
# [12] = target: T12, ZAP70 (Homo sapiens, UniProt P43403); conditions: estimated, abridged dose response curve, read-out: Kinase inhibitory activity EC50
# T12 construct: purchased Invitrogen (SelectScreen)
# In short: as §1
# [13] = target: T13, LTK (TYK1) (Homo sapiens, UniProt P29376); conditions: estimated, abridged dose response curve, read-out: Kinase inhibitory activity EC50
# T13 construct: purchased Invitrogen (SelectScreen platform)
# In short: as §1
# [14] = target: T14, MERTK (cMER) (Homo sapiens, UniProt Q12866); conditions: estimated, abridged dose response curve, read-out: Kinase inhibitory activity EC50
# T14 construct: purchased Invitrogen (SelectScreen service)
# In short: as §1
# [15] = target: T15, MATK (HYL, CTK) (Homo sapiens, UniProt P42679); conditions: estimated, abridged dose response curve, read-out: Kinase inhibitory activity EC50
# T15 construct: purchased Invitrogen (SelectScreen service)
# In short: as §1
# [16] = target: T16, FGFR3 (Homo sapiens, UniProt P22607); conditions: estimated, abridged dose response curve, read-out: Kinase inhibitory activity EC50
# T16 construct: purchased Invitrogen (SelectScreen platform)
# In short: as §1
# [17] = target: T17, GSK3A (GSK3 alpha) (Homo sapiens, UniProt P49840); conditions: estimated, abridged dose response curve, read-out: Kinase inhibitory activity EC50
# T17 construct: purchased Invitrogen (SelectScreen platform)
# In short: as §1
# [18] = target: T18, NEK9 (Homo sapiens, UniProt Q8TD19); conditions: estimated, abridged dose response curve, read-out: Kinase inhibitory activity EC50
# T18 construct: purchased Invitrogen, Inc. (SelectScreen service)
# In short: as §1
# [19] = target: T19, NEK1 (Homo sapiens, UniProt Q96PY6); conditions: estimated, abridged dose response curve, read-out: Kinase inhibitory activity EC50
# T19 construct: purchased Invitrogen, Inc. (SelectScreen service)
# In short: as §1
# [20] = target: T20, BRAF (Homo sapiens, UniProt P15056); conditions: estimated, abridged dose response curve, read-out: Kinase inhibitory activity EC50
# T20 construct: purchased Invitrogen, Inc. (SelectScreen platform)
# In short: as §1
# [21] = target: T21, KIT (Homo sapiens, UniProt P10721); conditions: estimated, abridged dose response curve, read-out: Kinase inhibitory activity EC50
# T21 construct: purchased Invitrogen (SelectScreen platform)
# In short: as §1
# [22] = target: T22, HCK (Homo sapiens, UniProt P08631); conditions: estimated, abridged dose response curve, read-out: Kinase inhibitory activity EC50
# T22 construct: purchased Invitrogen (SelectScreen)
# In short: as §1
# [23] = target: T23, PLK3 (Homo sapiens, UniProt Q9H4B4); conditions: estimated, abridged dose response curve, read-out: Kinase inhibitory activity EC50
# T23 construct: purchased Invitrogen, Inc. (SelectScreen service)
# In short: as §1
# [24] = target: T24, GRK6 (Homo sapiens, UniProt P43250)
# T24 construct: purchased Invitrogen (SelectScreen platform)
# In short: as §1
# [25] = target: T25, STK4 (MST1) (Homo sapiens, UniProt Q13043); conditions: estimated, abridged dose response curve, read-out: Kinase inhibitory activity EC50
# T25 construct: purchased Invitrogen (SelectScreen platform)
# In short: as §1
# [26] = target: T26, RPS6KA1 (RSK1) (Homo sapiens, UniProt Q15418); conditions: estimated, abridged dose response curve, read-out: Kinase inhibitory activity EC50
# T26 construct: purchased Invitrogen, Inc. (SelectScreen platform)
# In short: as §1
# [27] = target: T27, AMPK A1/B1/G1 (Homo sapiens, UniProt P54619+Q13131+Q9Y478); conditions: estimated, abridged dose response curve, read-out: Kinase inhibitory activity EC50
# T27 construct: purchased Invitrogen, Inc. (SelectScreen platform)
# In short: as §1
# T7 sequence (O75116 whole entry): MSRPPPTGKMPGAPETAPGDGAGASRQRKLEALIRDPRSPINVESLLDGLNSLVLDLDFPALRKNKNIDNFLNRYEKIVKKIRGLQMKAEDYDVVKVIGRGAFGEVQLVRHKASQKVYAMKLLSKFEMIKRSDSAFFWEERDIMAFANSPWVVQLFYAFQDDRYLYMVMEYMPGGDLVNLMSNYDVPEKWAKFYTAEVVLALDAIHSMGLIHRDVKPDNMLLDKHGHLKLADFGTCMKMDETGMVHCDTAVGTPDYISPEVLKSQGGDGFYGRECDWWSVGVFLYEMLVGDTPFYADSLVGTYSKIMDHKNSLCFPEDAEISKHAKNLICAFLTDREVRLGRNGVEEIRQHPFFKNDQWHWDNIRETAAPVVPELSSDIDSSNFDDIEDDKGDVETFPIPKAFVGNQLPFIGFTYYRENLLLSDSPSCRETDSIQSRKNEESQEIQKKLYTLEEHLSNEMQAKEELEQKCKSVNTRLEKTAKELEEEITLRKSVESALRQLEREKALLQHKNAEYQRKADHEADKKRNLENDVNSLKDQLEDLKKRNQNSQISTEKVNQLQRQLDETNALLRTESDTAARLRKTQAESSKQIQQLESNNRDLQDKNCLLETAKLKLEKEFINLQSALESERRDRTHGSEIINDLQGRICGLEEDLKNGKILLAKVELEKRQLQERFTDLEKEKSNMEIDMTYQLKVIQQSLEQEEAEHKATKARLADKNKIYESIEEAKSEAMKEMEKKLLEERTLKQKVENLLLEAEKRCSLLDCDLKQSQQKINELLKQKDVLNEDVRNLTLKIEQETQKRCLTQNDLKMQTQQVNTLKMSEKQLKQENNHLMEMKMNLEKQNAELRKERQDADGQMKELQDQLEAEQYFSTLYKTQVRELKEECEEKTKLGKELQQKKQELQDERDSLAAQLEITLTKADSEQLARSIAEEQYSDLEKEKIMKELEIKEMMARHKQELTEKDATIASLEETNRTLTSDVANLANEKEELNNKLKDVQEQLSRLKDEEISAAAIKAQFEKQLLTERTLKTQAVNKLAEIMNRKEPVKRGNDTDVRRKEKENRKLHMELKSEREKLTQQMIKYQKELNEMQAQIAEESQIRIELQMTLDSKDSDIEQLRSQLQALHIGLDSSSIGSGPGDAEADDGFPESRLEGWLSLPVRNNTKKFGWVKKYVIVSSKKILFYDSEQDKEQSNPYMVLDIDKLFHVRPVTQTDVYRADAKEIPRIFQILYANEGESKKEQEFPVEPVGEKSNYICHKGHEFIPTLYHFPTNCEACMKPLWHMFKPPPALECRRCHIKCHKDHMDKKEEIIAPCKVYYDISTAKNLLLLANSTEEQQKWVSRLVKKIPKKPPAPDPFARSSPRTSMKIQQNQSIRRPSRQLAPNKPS
# T8 sequence (P16234 24-1089 T674I): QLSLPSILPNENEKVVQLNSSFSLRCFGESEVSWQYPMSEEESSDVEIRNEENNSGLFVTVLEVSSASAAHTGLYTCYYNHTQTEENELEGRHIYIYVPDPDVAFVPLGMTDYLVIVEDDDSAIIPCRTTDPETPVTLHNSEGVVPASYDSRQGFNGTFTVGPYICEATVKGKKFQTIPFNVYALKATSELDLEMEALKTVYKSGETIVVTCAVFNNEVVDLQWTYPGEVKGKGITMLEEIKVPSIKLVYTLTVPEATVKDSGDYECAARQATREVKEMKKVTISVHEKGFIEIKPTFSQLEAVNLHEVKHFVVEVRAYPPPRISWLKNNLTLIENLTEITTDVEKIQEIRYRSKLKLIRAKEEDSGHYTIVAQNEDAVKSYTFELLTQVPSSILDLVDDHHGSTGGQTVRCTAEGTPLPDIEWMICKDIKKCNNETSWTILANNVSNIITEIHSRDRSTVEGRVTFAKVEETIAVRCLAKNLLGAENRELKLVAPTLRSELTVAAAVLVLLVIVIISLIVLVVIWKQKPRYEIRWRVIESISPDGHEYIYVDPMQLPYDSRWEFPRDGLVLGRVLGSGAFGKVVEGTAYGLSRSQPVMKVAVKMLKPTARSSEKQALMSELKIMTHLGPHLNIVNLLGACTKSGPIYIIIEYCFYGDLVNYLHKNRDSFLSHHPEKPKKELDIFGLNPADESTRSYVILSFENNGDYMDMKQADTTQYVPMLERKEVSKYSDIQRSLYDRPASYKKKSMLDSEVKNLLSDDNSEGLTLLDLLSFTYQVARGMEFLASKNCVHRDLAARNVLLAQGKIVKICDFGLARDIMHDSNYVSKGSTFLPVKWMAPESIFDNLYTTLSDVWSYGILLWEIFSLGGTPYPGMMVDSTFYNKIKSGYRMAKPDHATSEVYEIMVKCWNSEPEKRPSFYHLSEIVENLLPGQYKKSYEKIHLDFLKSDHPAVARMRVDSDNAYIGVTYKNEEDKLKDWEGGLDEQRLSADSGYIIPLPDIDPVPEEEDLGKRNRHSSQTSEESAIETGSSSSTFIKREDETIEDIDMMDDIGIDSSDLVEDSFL
# T4 sequence (P68400 whole entry): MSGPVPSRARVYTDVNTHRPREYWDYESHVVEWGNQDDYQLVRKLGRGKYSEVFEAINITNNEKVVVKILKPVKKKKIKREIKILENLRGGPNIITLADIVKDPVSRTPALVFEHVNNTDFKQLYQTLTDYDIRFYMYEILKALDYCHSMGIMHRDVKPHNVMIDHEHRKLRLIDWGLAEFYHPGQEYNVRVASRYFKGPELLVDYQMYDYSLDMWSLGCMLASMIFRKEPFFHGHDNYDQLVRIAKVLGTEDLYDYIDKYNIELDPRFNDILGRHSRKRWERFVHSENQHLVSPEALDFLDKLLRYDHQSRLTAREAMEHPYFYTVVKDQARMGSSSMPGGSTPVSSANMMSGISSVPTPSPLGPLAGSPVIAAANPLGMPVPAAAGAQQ
# T15 sequence (P42679 whole entry): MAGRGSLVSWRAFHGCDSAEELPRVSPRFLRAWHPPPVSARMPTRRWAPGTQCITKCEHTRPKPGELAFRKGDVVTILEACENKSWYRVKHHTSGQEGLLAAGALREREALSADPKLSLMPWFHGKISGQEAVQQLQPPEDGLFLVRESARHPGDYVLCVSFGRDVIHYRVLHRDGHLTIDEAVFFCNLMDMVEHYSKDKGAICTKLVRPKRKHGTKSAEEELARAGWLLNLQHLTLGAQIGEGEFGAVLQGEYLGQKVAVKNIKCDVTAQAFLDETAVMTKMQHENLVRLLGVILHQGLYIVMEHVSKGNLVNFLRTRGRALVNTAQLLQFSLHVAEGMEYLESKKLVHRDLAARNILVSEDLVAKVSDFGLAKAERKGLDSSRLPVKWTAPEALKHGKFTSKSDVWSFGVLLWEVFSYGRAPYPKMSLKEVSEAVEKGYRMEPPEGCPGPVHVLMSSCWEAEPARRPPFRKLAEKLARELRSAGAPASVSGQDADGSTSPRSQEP
# T18 sequence (Q8TD19 whole entry): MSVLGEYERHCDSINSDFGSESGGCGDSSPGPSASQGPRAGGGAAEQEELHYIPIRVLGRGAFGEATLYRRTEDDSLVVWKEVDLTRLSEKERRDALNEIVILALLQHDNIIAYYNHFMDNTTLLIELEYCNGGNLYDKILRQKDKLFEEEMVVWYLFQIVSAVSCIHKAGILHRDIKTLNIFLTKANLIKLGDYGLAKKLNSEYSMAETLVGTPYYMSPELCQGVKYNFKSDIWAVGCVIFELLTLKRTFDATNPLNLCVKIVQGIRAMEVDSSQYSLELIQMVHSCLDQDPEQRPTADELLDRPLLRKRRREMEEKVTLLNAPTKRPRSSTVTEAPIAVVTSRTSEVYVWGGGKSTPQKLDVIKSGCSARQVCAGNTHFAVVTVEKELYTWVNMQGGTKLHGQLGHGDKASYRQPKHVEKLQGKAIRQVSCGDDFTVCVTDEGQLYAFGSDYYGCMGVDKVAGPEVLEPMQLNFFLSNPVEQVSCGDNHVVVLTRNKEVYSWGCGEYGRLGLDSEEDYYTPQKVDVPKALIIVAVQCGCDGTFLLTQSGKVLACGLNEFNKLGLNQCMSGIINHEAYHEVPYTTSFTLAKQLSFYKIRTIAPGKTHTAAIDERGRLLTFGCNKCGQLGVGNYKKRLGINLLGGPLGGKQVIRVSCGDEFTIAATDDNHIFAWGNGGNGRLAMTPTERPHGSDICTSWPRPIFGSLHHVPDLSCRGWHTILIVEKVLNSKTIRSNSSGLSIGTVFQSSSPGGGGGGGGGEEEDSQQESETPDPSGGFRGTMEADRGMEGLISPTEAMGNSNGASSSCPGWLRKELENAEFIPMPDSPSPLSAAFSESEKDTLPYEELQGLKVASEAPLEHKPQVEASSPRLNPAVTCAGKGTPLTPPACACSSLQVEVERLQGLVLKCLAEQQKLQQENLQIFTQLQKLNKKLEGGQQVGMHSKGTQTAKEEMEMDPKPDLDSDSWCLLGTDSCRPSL
# T23 sequence (Q9H4B4 whole entry): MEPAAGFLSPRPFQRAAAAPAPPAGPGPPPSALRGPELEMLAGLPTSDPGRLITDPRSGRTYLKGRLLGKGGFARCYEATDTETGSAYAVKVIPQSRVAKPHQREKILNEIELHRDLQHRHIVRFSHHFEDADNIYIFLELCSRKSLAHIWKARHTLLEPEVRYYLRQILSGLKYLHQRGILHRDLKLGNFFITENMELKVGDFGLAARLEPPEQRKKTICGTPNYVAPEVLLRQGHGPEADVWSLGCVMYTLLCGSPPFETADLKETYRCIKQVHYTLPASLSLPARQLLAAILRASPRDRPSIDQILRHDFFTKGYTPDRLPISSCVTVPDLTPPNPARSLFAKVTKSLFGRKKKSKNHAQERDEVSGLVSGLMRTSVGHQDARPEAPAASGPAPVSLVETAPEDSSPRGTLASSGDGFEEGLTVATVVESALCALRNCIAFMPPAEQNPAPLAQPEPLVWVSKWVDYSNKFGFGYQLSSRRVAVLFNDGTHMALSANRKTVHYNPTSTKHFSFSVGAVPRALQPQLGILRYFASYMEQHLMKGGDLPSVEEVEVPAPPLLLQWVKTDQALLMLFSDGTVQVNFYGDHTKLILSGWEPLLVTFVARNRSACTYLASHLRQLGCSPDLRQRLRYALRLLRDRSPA
SMILES,EC50 [1] [µM],EC50 [2] [µM],EC50 [3] [µM],EC50 [4] [µM],EC50 [5] [µM],EC50 [6] [µM],EC50 [7] [µM],EC50 [8] [µM],EC50 [9] [µM],EC50 [10] [µM],EC50 [11] [µM],EC50 [12] [µM],EC50 [13] [µM],EC50 [14] [µM],EC50 [15] [µM],EC50 [16] [µM],EC50 [17] [µM],EC50 [18] [µM],EC50 [19] [µM],EC50 [20] [µM],other results
CN(C)CCCNc1ccc2ncn3c4ccc5[nH]ncc5c4c(=O)c1c23 [Compound (IV)],> 5,> 5,1.91,> 5,> 5,> 5,0.963,> 5,> 5,1.57,> 5,> 5,> 5,> 5,> 5,3.21,3.62,2.93,> 5,1.44,"EC50 [21]: 1.1 µM; EC50 [22]: 2.28 µM; EC50 [23]: > 5 µM; EC50 ([24]; GRK6, estimated, abridged dose response curve, read-out: Kinase inhibitory activity EC50): > 5 µM; EC50 [25]: 2.17 µM; EC50 [26]: 1.74 µM; EC50 [27]: > 5 µM"
"CCN(CC)CCNc1ccc2ncn3c4ccc(O)cc4c(=O)c1c23 [Symadex, 5-(2-(diethylamino)ethylamino)-8-hydroxy-6H-imidazo[4,5,1-de]acridin-6-one, reference compound]",> 5,> 5,2.85,> 5,> 5,> 5,> 5,> 5,> 5,1.79,> 5,> 5,> 5,3.6,> 5,> 5,> 5,> 5,3.38,4.45,EC50 [21]: 2.25 µM; EC50 [22]: 3.98 µM; EC50 [23]: > 5 µM; EC50 [24]: > 5 µM; EC50 [25]: > 5 µM; EC50 [26]: 2.07 µM; EC50 [27]: 3.48 µM
